Data taken from ChEMBL document CHEMBL4145629, “Synthesis of Thymoquinone-Artemisinin Hybrids: New Potent Antileukemia, Antiviral, and Antimalarial Agents” (ACS Med Chem Lett, 2018).

Tests used:
CCRF-CEM = test: Cytotoxicity against human CCRF-CEM cells assessed as reduction in cell viability after 72 hrs by resazurin dye based assay; format: functional
ADR5000 cell line = test: Cytotoxicity against human CEM/ADR5000 cells overexpressing P-gp assessed as reduction in cell viability after 72 hrs by resazurin dye based assay; format: functional; details: ADR5000, 72 h
Plasmodium falciparum = test: Antiplasmodial activity against Plasmodium falciparum 3D7 ring stage parasites infected in human erythrocytes after 72 hrs by SYBR Green 1 dye based fluorescence assay; format: functional, organism-based; details: 3D7, 72 h
HFF = test: Cytotoxicity against human HFF cells at 1 uM; format: cell-based
Human betaherpesvirus 5 [1] = test: Potency index, ratio of ganciclovir EC50 to compound EC50 for recombinant HCMV AD169 expressing GFP infected in human foreskin fibroblast; format: functional
Human betaherpesvirus 5 [2] = test: Potency index, ratio of artesunic acid EC50 to compound EC50 for recombinant HCMV AD169 expressing GFP infected in human foreskin fibroblast; format: functional

SMILES | EC50 (CCRF-CEM) [nM] | EC50 (ADR5000 cell line) [nM] | EC50 (Plasmodium falciparum) [nM] | Activity (HFF) [%] | Ratio EC50 (Human betaherpesvirus 5 [1]) | Ratio EC50 (Human betaherpesvirus 5 [2])
CC1=C(CCCOC(=O)CC(=O)OCCOC(=O)CCC(=O)O[C@@H]2O[C@@H]3O[C@@]4(C)CC[C@H]5[C@H](C)CC[C@@H]([C@H]2C)[C@@]35OO4)C(=O)C(C(C)C)=CC1=O | 80 | 8200 | 4.4 | – | – | –
CC1=C(CCCOC(=O)CCC(=O)O[C@@H]2O[C@@H]3O[C@@]4(C)CC[C@H]5[C@H](C)CC[C@@H]([C@H]2C)[C@@]35OO4)C(=O)C(C(C)C)=C(CCCOC(=O)CCC(=O)O[C@@H]2O[C@@H]3O[C@@]4(C)CC[C@H]5[C@H](C)CC[C@@H]([C@H]2C)[C@@]35OO4)C1=O | 200 | 200 | 4.3 | – | – | –
CC1=C(CCOC(=O)CCC(=O)O[C@@H]2O[C@@H]3O[C@@]4(C)CC[C@H]5[C@H](C)CC[C@@H]([C@H]2C)[C@@]35OO4)C(=O)C(C(C)C)=CC1=O | 1200 | 1000 | 8.2 | – | – | –
CC1=C(CCCCOC(=O)C[C@H]2O[C@@H]3O[C@@]4(C)CC[C@H]5[C@H](C)CC[C@@H]([C@H]2C)[C@@]35OO4)C(=O)C(C(C)C)=CC1=O | – | – | 17.5 | – | – | –
CC1=C(CCCCOC(=O)CCC(=O)OCC(C[C@H]2O[C@@H]3O[C@@]4(C)CC[C@H]5[C@H](C)CC[C@@H]([C@H]2C)[C@@]35OO4)C[C@H]2O[C@@H]3O[C@@]4(C)CC[C@H]5[C@H](C)CC[C@@H]([C@H]2C)[C@@]35OO4)C(=O)C(C(C)C)=CC1=O (stereo partly specified) | 2.7 | 7870 | 12.2 | 50 | – | –
CC1=C(CCCOC(=O)CCC(=O)O[C@@H]2O[C@@H]3O[C@@]4(C)CC[C@H]5[C@H](C)CC[C@@H]([C@H]2C)[C@@]35OO4)C(=O)C(C(C)C)=CC1=O | 500 | 1300 | 6.9 | – | – | –
CC1=C(CCCCOC2O[C@@H]3O[C@@]4(C)CC[C@H]5[C@H](C)CC[C@@H]([C@H]2C)[C@@]35OO4)C(=O)C(C(C)C)=CC1=O (stereo partly specified) | 300 | 200 | 3.7 | – | 5 | 8
CC1=C(CCCOC(=O)C[C@H]2O[C@@H]3O[C@@]4(C)CC[C@H]5[C@H](C)CC[C@@H]([C@H]2C)[C@@]35OO4)C(=O)C(C(C)C)=CC1=O | – | – | 54 | – | – | –
CC1=C(CCCOC2O[C@@H]3O[C@@]4(C)CC[C@H]5[C@H](C)CC[C@@H]([C@H]2C)[C@@]35OO4)C(=O)C(C(C)C)=CC1=O (stereo partly specified) | 200 | 200 | 5.9 | – | 5 | 8
CC1=C(CCCCOC(=O)CCC(=O)O[C@@H]2O[C@@H]3O[C@@]4(C)CC[C@H]5[C@H](C)CC[C@@H]([C@H]2C)[C@@]35OO4)C(=O)C(C(C)C)=C(CCCCOC(=O)CCC(=O)O[C@@H]2O[C@@H]3O[C@@]4(C)CC[C@H]5[C@H](C)CC[C@@H]([C@H]2C)[C@@]35OO4)C1=O | 6070 | 5660 | 12.1 | 50 | – | –
CC1=C(CCCCOC(=O)CCC(=O)O[C@@H]2O[C@@H]3O[C@@]4(C)CC[C@H]5[C@H](C)CC[C@@H]([C@H]2C)[C@@]35OO4)C(=O)C(C(C)C)=CC1=O | 1400 | 800 | 7.7 | – | – | –
C[C@H]1[C@H](OC(=O)CCC(=O)O)O[C@@H]2O[C@@]3(C)CC[C@H]4[C@H](C)CC[C@@H]1[C@@]24OO3 [ARTESUNATE] | 400 | 100 | 8.2 | – | – | –
COc1cccc2c1C(=O)c1c(O)c3c(c(O)c1C2=O)C[C@@](O)(C(=O)CO)C[C@@H]3O[C@H]1C[C@H](N)[C@H](O)[C@H](C)O1 [DOXORUBICIN] | 9 | 23300 | – | – | – | –
CC1=CC(=O)C(C(C)C)=CC1=O [THYMOQUINONE] | – | – | > 80000 | – | – | –
